Results taken from patent US6004966A, “Use of xanthine oxidase inhibitors as anti-ischaemic agents” (BTG International Limited, priority 1994, dated 1999).
Like-named read-outs stand apart in the source and are kept apart here.

Legend:
xanthine oxidase = xanthine oxidase (Bos taurus, UniProt P80457); assay: Xanthine oxidase inhibition assay (superoxide-dependent cytochrome c reduction); format: biochemical; conditions: for % Inhibition (of initial rate of reaction) / inhibition at 1 µM / inhibition at 5 µM / inhibition at 10 µM / inhibition at 50 µM: n=3; for inhibition at 1 µM / inhibition at 5 µM / inhibition at 10 µM / inhibition at 50 µM: read-out: % Inhibition (of initial rate of reaction); for xanthine oxidase inhibition, result in words: statement under Table 4
xanthine oxidase, sequence (P80457 whole entry): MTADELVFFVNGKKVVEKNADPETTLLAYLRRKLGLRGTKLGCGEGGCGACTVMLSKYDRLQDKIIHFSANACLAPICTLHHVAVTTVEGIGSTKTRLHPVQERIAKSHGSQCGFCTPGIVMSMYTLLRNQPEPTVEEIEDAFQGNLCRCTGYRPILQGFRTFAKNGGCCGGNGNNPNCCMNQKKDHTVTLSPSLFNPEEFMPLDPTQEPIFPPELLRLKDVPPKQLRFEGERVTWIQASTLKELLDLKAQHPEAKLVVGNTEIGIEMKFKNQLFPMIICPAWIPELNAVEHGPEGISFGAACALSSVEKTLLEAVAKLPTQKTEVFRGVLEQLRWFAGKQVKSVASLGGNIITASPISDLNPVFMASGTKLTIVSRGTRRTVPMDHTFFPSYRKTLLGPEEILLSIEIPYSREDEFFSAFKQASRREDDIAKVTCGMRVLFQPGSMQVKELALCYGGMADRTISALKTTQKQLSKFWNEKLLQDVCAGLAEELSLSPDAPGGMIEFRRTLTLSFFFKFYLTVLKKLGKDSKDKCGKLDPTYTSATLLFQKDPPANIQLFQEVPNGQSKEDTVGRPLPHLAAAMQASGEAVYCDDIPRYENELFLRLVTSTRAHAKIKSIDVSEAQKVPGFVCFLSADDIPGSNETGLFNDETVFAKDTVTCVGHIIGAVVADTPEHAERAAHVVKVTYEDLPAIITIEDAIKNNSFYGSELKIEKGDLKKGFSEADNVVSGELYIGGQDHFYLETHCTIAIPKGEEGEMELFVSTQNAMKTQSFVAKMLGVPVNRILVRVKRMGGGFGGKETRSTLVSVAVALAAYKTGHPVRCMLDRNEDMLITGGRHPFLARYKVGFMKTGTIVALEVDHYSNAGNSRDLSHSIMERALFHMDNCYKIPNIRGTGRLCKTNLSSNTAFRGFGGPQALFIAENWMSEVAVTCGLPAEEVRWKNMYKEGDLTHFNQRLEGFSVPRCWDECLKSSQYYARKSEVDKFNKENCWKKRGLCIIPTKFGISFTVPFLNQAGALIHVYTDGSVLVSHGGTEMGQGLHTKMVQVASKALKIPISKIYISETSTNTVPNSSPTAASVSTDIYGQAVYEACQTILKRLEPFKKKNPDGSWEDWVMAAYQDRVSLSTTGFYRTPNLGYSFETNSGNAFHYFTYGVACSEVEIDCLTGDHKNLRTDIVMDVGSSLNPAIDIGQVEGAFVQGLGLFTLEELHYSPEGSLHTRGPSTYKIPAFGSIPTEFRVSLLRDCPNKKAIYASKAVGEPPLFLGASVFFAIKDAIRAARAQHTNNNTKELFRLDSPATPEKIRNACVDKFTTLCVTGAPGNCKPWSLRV
Experimental: Superoxide produced from the oxidation of varying concentrations of xanthine to uric acid in the presence of xanthine oxidase (5×10^-3 U/ml) was quantified by the superoxide dismutase inhibitable reduction of […] (10 μM) at 550 nm with respect to time. Enzyme inhibition was determined at varying concentrations of the inhibitors.

bovine xanthine oxidase = bovine xanthine oxidase (Bos taurus, UniProt P80457); assay: Further xanthine oxidase inhibition studies, steady-state kinetic analysis (uric acid formation); format: biochemical; conditions: 37° C.; for manner of xanthine oxidase inhibition: pH 7.4, inhibitors 1-3 μM
bovine xanthine oxidase, sequence (P80457 whole entry): as above
Experimental: The study was conducted at 37° C. using 30 mU/ml bovine xanthine oxidase in 50 mM phosphate buffer (ph 7.4). The initial rate of uric acid formation was determined spectrophotometrically (292 nm) in the presence of varying concentrations of xanthine (5, 7.5, 10, 15 and 20 μM) and the inhibitors (1-3 μM). Enzyme-inhibitor dissociation constant (Ki) values were calculated from the apparent 1/Vmax values obtained at different inhibitor concentrations.

[1] = Hydroxyl radical scavenging activity (inhibition of NPG hydroxylation by peroxynitrous acid); conditions: n=3
Experimental: Antioxidant activity is based on the selective hydroxylation of NPG (N,N'-[5-nitro-1,3-phenylene] bisglutaramide) by hydroxyl radicals produced from peroxynitrous acid (1 mM) by the addition of peroxynitrite stabilised in base to a mixture of NPG (1 mM) and varying concentrations of the anti-ischaemic agents prepared in 0.2M phosphate buffer, pH 7. The solutions were analysed by RP-HPLC. NPS (50 mM), an analogue of NPG, was used as an internal standard. Inhibition of hydroxylation of NPG is a direct measure of the hydroxyl radical scavenging ability of the inhibitors.
Values are expressed as percentage scavenging of the hydroxyl radicals % standard deviation, n=3.

rat hearts = assay: Heart ischaemia reperfusion studies (Langendorff perfused rat hearts); set-up: species or system Wistar rats; conditions: 150 μM in reperfusion perfusate, after 60 min aerobic perfusion following 50 min ischaemia, ±sem
Experimental: Adult male Wistar rats (240-320 g) were anaesthetised intraperitoneally (i.p.) with sodium pentobarbital (Sagatal; 60 mg/kg and heparinised (100 IU/100 g body weight) through the femoral vein, and the heart excised in cold Krebs buffer. By Langendorff technique, the hearts were perfused at a constant pressure (100 mm H2 O) with Krebs bicarbonate buffer. The study was initiated by 30 min aerobic perfusion followed by a 50 min period of global ischaemia, achieved by clamping perfusion flow into the aorta, and finally by reperfusion over 60 min. A ballon was inserted into the left ventricle and inflated to a left ventricular end diastolic pressure (LVEDP) of 4 mm Hg and used to measure left ventricular developed pressure (LVDP) and heart rate (HR). In addition, the coronary effluent was collected over timed intervals as a measure of coronary flow (CF). Assessment of function was made 20 min after the start of the study and at 10 min intervals thereafter. SL301 treated hearts followed a similar protocol as above except that the drug was present in the reperfusion perfusate following the ischaemic insult.

[2] = Table 1, [Xanthine] = 50 μM, inhibitor 1 μM
[3] = Table 1, [Xanthine] = 50 μM, inhibitor 5 μM
[4] = Table 1, [Xanthine] = 50 μM, inhibitor 10 μM
[5] = Table 1, [Xanthine] = 50 μM, inhibitor 50 μM
[6] = Table 2, [Xanthine] = 25 μM, inhibitor 5 μM
[7] = Table 2, [Xanthine] = 25 μM, inhibitor 10 μM
[8] = Table 2, [Xanthine] = 25 μM, inhibitor 50 μM
[9] = Table 3, [Xanthine] = 25 μM, inhibitor 1 μM
[10] = Table 3, [Xanthine] = 25 μM, inhibitor 5 μM
[11] = Table 3, [Xanthine] = 25 μM, inhibitor 10 μM
[12] = Table 3, [Xanthine] = 25 μM, inhibitor 50 μM
[13] = Table 4, [Xanthine] = 8 μM, inhibitor 1 μM
[14] = Table 4, [Xanthine] = 8 μM, inhibitor 5 μM
[15] = Table 4, [Xanthine] = 8 μM, inhibitor 10 μM
[16] = Table 4, [Xanthine] = 8 μM, inhibitor 50 μM
[17] = Table 2, [Xanthine] = 25 μM, inhibitor 1 μM

SMILES	inhibition at 5 µM (xanthine oxidase; [3])	inhibition at 10 µM (xanthine oxidase; [4])	inhibition at 50 µM (xanthine oxidase; [5])	inhibition at 1 µM (xanthine oxidase; [17])	inhibition at 5 µM (xanthine oxidase; [6])	inhibition at 10 µM (xanthine oxidase; [7])	inhibition at 50 µM (xanthine oxidase; [8])	inhibition at 5 µM (xanthine oxidase; [10])	inhibition at 10 µM (xanthine oxidase; [11])	inhibition at 50 µM (xanthine oxidase; [12])	inhibition at 1 µM (xanthine oxidase; [13])	inhibition at 5 µM (xanthine oxidase; [14])	inhibition at 10 µM (xanthine oxidase; [15])	inhibition at 50 µM (xanthine oxidase; [16])	xanthine oxidase inhibition, result in words (xanthine oxidase)	% Activity (percentage scavenging of the hydroxyl radical) ([1]; Antioxidant Ratio 0.1)	% Activity (percentage scavenging of the hydroxyl radical) ([1]; Antioxidant Ratio 0.5)	% Activity (percentage scavenging of the hydroxyl radical) ([1]; Antioxidant Ratio 1.0)	% Activity (percentage scavenging of the hydroxyl radical) ([1]; Antioxidant Ratio 5.0)	also measured
Oc1ncnc2[nH]ncc12 [Allopurinol, allopurinol, reference compound]																				% Inhibition (of initial rate of reaction) (xanthine oxidase; [2]): 13.83%; % Inhibition (of initial rate of reaction) (xanthine oxidase; [3]): 22.90%; % Inhibition (of initial rate of reaction) (xanthine oxidase; [4]): 20.63%; % Inhibition (of initial rate of reaction) (xanthine oxidase; [5]): 59.18%; % Inhibition (of initial rate of reaction) (xanthine oxidase; [6]): 2.41%; % Inhibition (of initial rate of reaction) (xanthine oxidase; [7]): 14.09%; % Inhibition (of initial rate of reaction) (xanthine oxidase; [8]): 58.76%; % Inhibition (of initial rate of reaction) (xanthine oxidase; [9]): 23.88%; % Inhibition (of initial rate of reaction) (xanthine oxidase; [10]): 64.57%; % Inhibition (of initial rate of reaction) (xanthine oxidase; [11]): 44.88%; % Inhibition (of initial rate of reaction) (xanthine oxidase; [12]): 68.50%; % Inhibition (of initial rate of reaction) (xanthine oxidase; [13]): 17.40%; % Inhibition (of initial rate of reaction) (xanthine oxidase; [14]): 29.20%; % Inhibition (of initial rate of reaction) (xanthine oxidase; [15]): 49.85%; % Inhibition (of initial rate of reaction) (xanthine oxidase; [16]): 73.45%; manner of xanthine oxidase inhibition (bovine xanthine oxidase): competitive
O=c1[nH]c2[nH]ncc2c(=O)n1O [SL101, 2,6-dioxo-1-hydroxypyrazolo-[3,4-d]-pyrimidine]															inactive	8.25%	20.96%	39.71%	72.79%	
O=c1[nH]c2[nH]cnc2c(=O)n1O [SL201]															inactive					
O=c1[nH]c2nccnc2c(=O)n1O [SL301]	31.8%	39.6%	63.2%	37.1%	51%	58%	72%	41.7%	58.3%	77.8%	22.3%	41.8%	49.8%	70.9%		9.80%	18.00%	45.90%	70.21%	inhibition at 1 µM (xanthine oxidase; [2]): 29.1%; inhibition at 1 µM (xanthine oxidase; [9]): 25%; Ki (bovine xanthine oxidase; 30 mU/ml bovine xanthine oxidase, 50 mM phosphate buffer pH 7.4, xanthine 5-20 μM): 700 nM; manner of xanthine oxidase inhibition (bovine xanthine oxidase): competitive; % recovery of pre-ischaemic LVDP (left ventricular developed pressure) (rat hearts; control 41 ± 13): 76 ± 9%; % recovery of pre-ischaemic HR (heart rate) (rat hearts; control 49 ± 13): 90 ± 6%; % recovery of pre-ischaemic CF (coronary flow) (rat hearts; control 83 ± 6): 72 ± 4%

Now from value to compound, other results behind:

inhibition at 5 µM (xanthine oxidase; [3])	inhibition at 10 µM (xanthine oxidase; [4])	inhibition at 50 µM (xanthine oxidase; [5])	inhibition at 1 µM (xanthine oxidase; [17])	inhibition at 5 µM (xanthine oxidase; [6])	inhibition at 10 µM (xanthine oxidase; [7])	inhibition at 50 µM (xanthine oxidase; [8])	inhibition at 5 µM (xanthine oxidase; [10])	inhibition at 10 µM (xanthine oxidase; [11])	inhibition at 50 µM (xanthine oxidase; [12])	inhibition at 1 µM (xanthine oxidase; [13])	inhibition at 5 µM (xanthine oxidase; [14])	inhibition at 10 µM (xanthine oxidase; [15])	inhibition at 50 µM (xanthine oxidase; [16])	xanthine oxidase inhibition, result in words (xanthine oxidase)	SMILES	% Activity (percentage scavenging of the hydroxyl radical) ([1]; Antioxidant Ratio 0.1)	% Activity (percentage scavenging of the hydroxyl radical) ([1]; Antioxidant Ratio 0.5)	% Activity (percentage scavenging of the hydroxyl radical) ([1]; Antioxidant Ratio 1.0)	% Activity (percentage scavenging of the hydroxyl radical) ([1]; Antioxidant Ratio 5.0)	also measured
24.8%	32.3%	67.4%	2.26%	37.3%	42.4%	62.4%	46.1%	30.8%	43.6%	6.06%	33.3%	45.5%	48.5%		O=c1[nH]c(=O)c2c[nH]nc2[nH]1 [Oxypurinol, oxypurinol, reference compound]					inhibition at 1 µM (xanthine oxidase; [2]): 2.26%; inhibition at 1 µM (xanthine oxidase; [9]): 15.4%
														inactive	O=c1c2cn[nH]c2ncn1O [SL100, 1, hydroxy-6-oxypyrazolo-[3,4-d]-pyrimidine]	6.56%	37.70%	65.58%	100%	
														inactive	O=c1c2[nH]cnc2ncn1O [SL200, 1-hydroxy-6-oxopurine]	25.13%	48.49%	69.54%	90.09%	
1.84%	14.2%	16%	13.8%	9.09%	16.1%	34.7%	5.55%	11.1%	27.8%	6.15%	12.6%	19.1%	38.5%		O=c1c2nccnc2ncn1O [SL300, 1-hydroxy-6-oxypyrazino-[2,3-d]-pterine]		6.04%	26.58%	68.58%	
